Assay [1] is described as follows: Cupric-reducing antioxidant capacity (CUPRAC) assay. To be noted: Trolox equivalents. Here is the method:
(§1) The ferric-reducing antioxidant power (FRAP) assay was carried out according to a previously described method. The cupric-reducing antioxidant capacity (CUPRAC) assay was performed according to literature. Results are expressed as mmoles Trolox equivalents/kg PEE. Catechin was used as a positive control in both assays.

A further assay is described as follows: DPPH discoloration assay. Here is the method:
(§2) The scavenging capacity of the G. decorticans PEEs was evaluated against the free radicals DPPH and superoxide anion. The discoloration of the DPPH radical was carried out according to literature. The scavenging of the superoxide anion was evaluated following a previously described method. Results are presented as the amount of extract that is able to scavenge 50% of the radicals (SC50, μg PEE/mL).
(DPPH is a stable violet radical that fades when it is reduced.)

Assay [2] is described as follows: Ferric-reducing antioxidant power (FRAP) assay. To be noted: Trolox equivalents. Here is the method: as §1
Assay [3] can be described thus: Scavenging of superoxide anion generated by xanthine oxidase. In kind it is biochemical. Here is the method:
The superoxide anion generated by xanthine oxidase can be scavenged by polyphenols. In this assay, the flavonol catechin was used as a positive control, showing a SC50 of 8.7 ± 0.1 μg/mL. All G. decorticans fruit PEEs were able to scavenge the superoxide anion, with SC50 values between 14.5–44.2 μg/mL, with the exception of the sample from El Transito II that only scavenged 45.1% the radical at 50 μg/mL.
as §2

For a further assay, the target named is T1, COX-1 (Ovis aries, UniProt P05979).
T1 construct: purchased Cayman Chemical 560131
T1 sequence (P05979 25-600): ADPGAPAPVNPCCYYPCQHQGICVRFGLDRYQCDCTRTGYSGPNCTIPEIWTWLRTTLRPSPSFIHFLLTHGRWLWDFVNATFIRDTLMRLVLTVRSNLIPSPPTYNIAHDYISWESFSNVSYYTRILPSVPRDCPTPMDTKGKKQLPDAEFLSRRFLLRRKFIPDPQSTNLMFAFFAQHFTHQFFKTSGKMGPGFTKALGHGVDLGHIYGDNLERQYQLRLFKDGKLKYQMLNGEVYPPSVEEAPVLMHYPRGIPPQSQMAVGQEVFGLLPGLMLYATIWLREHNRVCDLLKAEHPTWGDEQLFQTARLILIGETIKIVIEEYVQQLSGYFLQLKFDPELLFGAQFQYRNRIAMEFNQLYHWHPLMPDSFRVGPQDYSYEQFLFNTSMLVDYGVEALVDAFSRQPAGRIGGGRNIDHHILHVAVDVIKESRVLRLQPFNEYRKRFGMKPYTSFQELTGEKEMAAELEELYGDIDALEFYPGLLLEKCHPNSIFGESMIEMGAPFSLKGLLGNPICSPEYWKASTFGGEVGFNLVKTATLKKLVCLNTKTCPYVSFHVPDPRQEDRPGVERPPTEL
The assay can be described thus: Cyclooxygenase inhibition, commercial kit (COX-1). The settings on record: at 50 μg/mL. Type of assay: biochemical. Here is the method: COX inhibitory activity was determined using a commercial kit (560131, Cayman Chemical, Ann Arbor, MI, USA). Enzyme and samples (50 μg PEE/mL) were pre-incubated during 10 min and then arachidonic acid was added. The reaction was conducted for exactly 2 min at 37 °C and halted in boiling water for 5 min. […] Results were expressed as a percentage of inhibition of PGF2α production. The commercial anti-inflammatory compound nimesulide was included as the reference compound [4].

A further assay addresses T2, COX-2 (Homo sapiens, UniProt P35354).
T2 construct: purchased Cayman Chemical 560131
T2 sequence (P35354 18-604): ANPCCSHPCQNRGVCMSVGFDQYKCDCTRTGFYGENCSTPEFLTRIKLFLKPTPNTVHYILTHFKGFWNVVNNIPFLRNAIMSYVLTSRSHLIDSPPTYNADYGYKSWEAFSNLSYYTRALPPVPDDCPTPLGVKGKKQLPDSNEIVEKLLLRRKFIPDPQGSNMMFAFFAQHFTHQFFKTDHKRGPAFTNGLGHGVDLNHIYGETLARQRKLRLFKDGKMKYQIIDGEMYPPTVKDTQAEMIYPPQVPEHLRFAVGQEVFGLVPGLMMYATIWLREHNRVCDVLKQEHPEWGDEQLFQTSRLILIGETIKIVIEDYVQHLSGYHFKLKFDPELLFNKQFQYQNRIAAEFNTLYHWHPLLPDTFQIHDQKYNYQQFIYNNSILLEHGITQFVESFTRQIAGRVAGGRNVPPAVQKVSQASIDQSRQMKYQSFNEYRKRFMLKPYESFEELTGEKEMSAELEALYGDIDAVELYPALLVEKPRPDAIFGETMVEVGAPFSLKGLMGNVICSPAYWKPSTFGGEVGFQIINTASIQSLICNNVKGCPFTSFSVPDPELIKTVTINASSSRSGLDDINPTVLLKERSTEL
The assay can be described thus: Cyclooxygenase inhibition, commercial kit (COX-2). Type of assay: biochemical. To be noted: read-out: COX-2% Inhibition. Here is the method:
Enzyme and samples (50 μg PEE/mL) were pre-incubated during 10 min and then arachidonic acid was added. The reaction was conducted for exactly 2 min at 37 °C and halted in boiling water for 5 min. […] Results were expressed as a percentage of inhibition of PGF2α production.

In another assay the target is T3, sPLA2 (Homo sapiens, UniProt P39877).
T3 construct: purchased Cayman Chemical 10004883
T3 sequence (P39877 21-138): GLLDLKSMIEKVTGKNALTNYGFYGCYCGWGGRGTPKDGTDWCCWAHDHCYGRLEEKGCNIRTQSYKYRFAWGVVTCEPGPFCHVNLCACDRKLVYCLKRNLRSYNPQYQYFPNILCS
The assay can be described thus: Secretory phospholipase A2 inhibition, colorimetric kit. The settings on record: read-out: sPLA2 % Inhibition. In kind it is biochemical. Here is the method:
The sPLA2 inhibitory activity was determined using a colorimetric kit (10004883, Cayman Chemical). Enzyme and samples (200–100 μg PEE/mL) were mixed, and then the substrate (diheptanoyl Thio-PC) was added, and incubated during 15 min at 25 °C. Then, DTNB (Ellman’s reagent) was added and absorbance was read at 415 nm. Results are expressed as a percentage of inhibition or IC50 (μg PEE/mL). Ursolic acid was used as the reference compound [37].

For another assay, the target named is porcine pancreas lipase. More on the design: method as in PMID 28454959. The settings on record: commercial polyphenol standards; cited from earlier work.

Regarding `O.Oc1cc(O)c2c(c1)O[C@H](c1ccc(O)c(O)c1)[C@@H](O)C2` [Catechin], the CUPRAC in assay [1] stood at 13.4 ± 0.3 mmol TE/g PEE. Moreover, the “DPPH SC50” value in the assay “DPPH discoloration assay” (Table 1, fruit PEEs) was found to be 11.4 ± 1.6 µg/mL; in the assay “DPPH discoloration assay” (Table 4, Diego de Almagro PEE and Sephadex LH-20 fractions) it was 11.4 ± 1.6 µg/mL. In addition, in assay [2], the FRAP came out at 5.4 ± 0.1 mmol TE/g PEE. Further, in assay [3], the “O2 Scavenging SC50” value is 8.7 ± 0.1 µg/mL.

For the molecule `CS(=O)(=O)Nc1ccc([N+](=O)[O-])cc1Oc1ccccc1` [Nimesulide], the inhibition at 50 µg/mL against COX-1 and on COX-2 was 100% each time.

With `C[C@H]1[C@H](C)CC[C@]2(C(=O)O)CC[C@]3(C)C(=CC[C@@H]4[C@@]5(C)CC[C@H](O)C(C)(C)[C@@H]5CC[C@]43C)[C@H]12` [Ursolic acid], the inhibition at 50 µg/mL at sPLA2 worked out at 26.7 ± 0.7%.

As to `O=C(O[C@@H]1Cc2c(O)cc(O)cc2O[C@@H]1c1cc(O)c(O)c(O)c1)c1cc(O)c(O)c(O)c1` [epigallocatechin gallate], on porcine pancreas lipase, the IC50 is 391 µM.

As to `Oc1cc(O)c2c(c1)O[C@H](c1cc(O)c(O)c(O)c1)[C@H](O)C2` [epigallocatechin], the 50% inhibitory concentration (IC50) at porcine pancreas lipase is 237 µM.

For `O=C(O)c1cc(O)c(O)c(O)c1` [gallic acid], the IC50 on porcine pancreas lipase is 387 µM.

Usually inhibition stands for the relative decrease from the control value, in per cent. Usually IC50 stands for the concentration at which inhibition is half-maximal.

Values taken from article PMC6151650, “The Native Fruit Geoffroea decorticans from Arid Northern Chile: Phenolic Composition, Antioxidant Activities and In Vitro Inhibition of Pro-Inflammatory and Metabolic Syndrome-Associated Enzymes” (Molecules : A Journal of Synthetic Chemistry and Natural …, 2017).
